Key:
human ERβ = biological target: T1, human ERβ (Homo sapiens, UniProt Q92731); experiment: Radioligand binding competition with [3H]-17β-estradiol, ERβ; settings: human ERβ ligand binding domain extract, read-out: ER-β IC50
T1 construct: M214-Q530 of human ERβ; Flag (C); made in house; host or cells: E. coli BL21(DE3), clarified lysate

[1] = test system: metallothionein-II mRNA in Saos-2 cells; experiment: Regulation of metallothionein II mRNA in Saos-2 cells; format: cell-based
Text: Estrogens acting through ERβ, but not ERα can upregulate metallothionein II mRNA levels in Saos-2 cells as described by Harris [Endocrinology 142: 645-652 (2001)]. Results from this test procedure can be combined with results from the test procedure described below (ERE reporter test procedure) to generate a selectivity profile for compounds of this invention (see also WO 00/37681).

human ERα = biological target: T2, human ERα (Homo sapiens, UniProt P03372); experiment: Radioligand binding competition with [3H]-17β-estradiol, ERα; settings: human ERα ligand binding domain extract, read-out: ER-α IC50
T2 construct: amino acids M250-V595 of human ERα; His (N); Flag (C); made in house; host or cells: E. coli BL21(DE3), clarified lysate
T2 sequence (P03372 250-595): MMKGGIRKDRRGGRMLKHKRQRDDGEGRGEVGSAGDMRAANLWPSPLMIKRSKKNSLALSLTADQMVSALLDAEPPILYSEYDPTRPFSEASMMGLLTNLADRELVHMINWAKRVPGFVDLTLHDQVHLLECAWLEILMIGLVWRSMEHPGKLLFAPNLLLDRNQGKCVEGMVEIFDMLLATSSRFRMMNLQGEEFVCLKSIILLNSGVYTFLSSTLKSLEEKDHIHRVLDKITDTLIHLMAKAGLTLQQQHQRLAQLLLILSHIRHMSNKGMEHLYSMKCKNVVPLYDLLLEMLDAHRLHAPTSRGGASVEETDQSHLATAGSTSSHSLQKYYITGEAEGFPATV

T1 sequence (Q92731 214-530): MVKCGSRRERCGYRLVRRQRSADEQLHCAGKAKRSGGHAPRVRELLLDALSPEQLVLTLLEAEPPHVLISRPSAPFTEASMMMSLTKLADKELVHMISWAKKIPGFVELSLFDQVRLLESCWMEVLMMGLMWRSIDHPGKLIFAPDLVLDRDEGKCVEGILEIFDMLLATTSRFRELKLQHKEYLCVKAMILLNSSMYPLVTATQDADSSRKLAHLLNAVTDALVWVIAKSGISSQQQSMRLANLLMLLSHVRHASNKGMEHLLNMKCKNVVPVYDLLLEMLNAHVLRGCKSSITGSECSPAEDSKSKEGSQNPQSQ

| SMILES | melting point | IC50 (human ERβ) | Fold upregulation of metallothionein-II mRNA [1] | IC50 (human ERα) |
| --- | --- | --- | --- | --- |
| Cc1c(-c2ccc(O)cc2)sc(C=O)c1-c1ccc(O)cc1 [Example 15, 3,5-Bis(4-hydroxyphenyl)-4-methylthiophene-2-carbaldehyde] | 223 to 225 °C | 0.0021 µM | 6.0 | 0.031 µM |
| Cc1c(-c2ccc(O)c(F)c2)sc(C=O)c1-c1ccc(O)c(Cl)c1 [Example 10, 3-(3-Chloro-4-hydroxyphenyl)-5-(3-fluoro-4-hydroxyphenyl)-4-methylthiophene-2-carbaldehyde] | 252 to 254 °C | 0.004 µM |  | 0.088 µM |
| Cc1c(-c2ccc(O)cc2)sc(C#N)c1-c1cccc(O)c1 [Example 17, 3-(3-Hydroxyphenyl)-5-(4-hydroxyphenyl)-4-methylthiophene-2-carbonitrile] | 220 to 222 °C | 0.083 µM |  | 0.305 µM |
| Cc1c(-c2ccc(O)c(F)c2)sc(C=O)c1-c1ccc(O)cc1 [Example 8, 5-(3-Fluoro-4-hydroxyphenyl)-3-(4-hydroxyphenyl)-4-methyl-2-thiophenecarbaldehyde] | 227 to 229 °C | 0.0053 µM |  | 0.093 µM |
| Cc1c(-c2ccc(O)c(Cl)c2)sc(C=O)c1-c1ccc(O)c(F)c1 [Example 14, 5-(3-Chloro-4-hydroxyphenyl)-3-(3-fluoro-4-hydroxyphenyl)-4-methylthiophene-2-carbaldehyde] | 227 to 229 °C | 0.016 µM |  | 0.157 µM |
| Cc1c(-c2ccc(O)c(Cl)c2)sc(C=O)c1-c1ccc(O)cc1 [Example 13, 5-(3-Chloro-4-hydroxyphenyl)-3-(4-hydroxyphenyl)-4-methylthiophene-2-carbaldehyde] |  | 0.027 µM |  | 0.293 µM |
| Cc1cc(O)ccc1-c1sc(C=O)c(-c2ccc(O)cc2)c1C [Example 11, 5-(4-Hydroxy-2-methylphenyl)-3-(4-hydroxyphenyl)-4-methyl-2-thiophenecarbaldehyde] |  | 0.0078 µM |  | 0.068 µM |
| Cc1cc(O)ccc1-c1c(C=O)sc(-c2ccc(O)cc2)c1C [Example 3, 3-(4-Hydroxy-2-methylphenyl)-5-(4-hydroxyphenyl)-4-methyl-2-thiophenecarbaldehyde] | 244 to 247 °C | 0.0055 µM |  | 0.029 µM |
| Cc1c(-c2ccc(O)cc2)sc(C=NO)c1-c1cccc(O)c1 (mixture of isomers) [Example 16, 3-(3-Hydroxyphenyl)-5-(4-hydroxyphenyl)-4-methylthiophene-2-carbaldehyde oxime] |  | 0.091 µM |  | 0.275 µM |
| Cc1c(-c2ccc(O)cc2)sc(C=O)c1-c1cccc(O)c1 [Example 1, 3-(3-Hydroxyphenyl)-5-(4-hydroxyphenyl)-4-methylthiophene-2-carbaldehyde] | 103 to 104 °C | 0.054 µM |  | 0.212 µM |
| Cc1cc(O)ccc1-c1sc(C=O)c(-c2ccc(O)c(F)c2)c1C [Example 12, 3-(3-Fluoro-4-hydroxyphenyl)-5-(4-hydroxy-2-methylphenyl)-4-methylthiophene-2-carbaldehyde] |  | 0.013 µM |  | 0.089 µM |
| Cc1c(-c2ccc(O)cc2)sc(C=NO)c1-c1ccc(O)cc1 (mixture of isomers) [Example 18, 3,5-Bis(4-hydroxyphenyl)-4-methylthiophene-2-carbaldehyde oxime] |  | 0.042 µM |  | 0.086 µM |
| Cc1c(-c2ccc(O)cc2)sc(C=O)c1-c1ccc(O)c(Cl)c1 [Example 7, 3-(3-Chloro-4-hydroxyphenyl)-5-(4-hydroxyphenyl)-4-methylthiophene-2-carbaldehyde] |  | 0.0017 µM |  | 0.031 µM |
| Cc1c(-c2cccc(O)c2)sc(C#N)c1-c1ccc(O)cc1 [Example 22, 3-(4-Hydroxyphenyl)-5-(3-hydroxyphenyl)-4-methylthiophene-2-carbonitrile] |  | 0.073 µM |  | 0.299 µM |
| Cc1c(-c2ccc(O)cc2)sc(C=O)c1-c1ccc(O)c(F)c1 [Example 5, 3-(3-Fluoro-4-hydroxyphenyl)-5-(4-hydroxyphenyl)-4-methyl-2-thiophenecarbaldehyde] |  | 0.0018 µM |  | 0.0355 µM |
| Cc1c(-c2ccc(O)cc2)sc(C#N)c1-c1ccc(O)cc1 [Example 19, 3,5-Bis(4-hydroxyphenyl)-4-methylthiophene-2-carbonitrile] |  | 0.0036 µM |  | 0.04 µM |
| CON=Cc1sc(-c2ccc(O)cc2)c(C)c1-c1ccc(O)cc1 [Example 20, 3,5-Bis(4-hydroxyphenyl)-4-methylthiophene-2-carbaldehyde O-methyloxime] |  | 0.028 µM |  | 0.152 µM |
| Cc1c(-c2ccc(O)cc2)sc(C=O)c1-c1ccc(O)c(C=O)c1 [Example 6, 3-(3-Formyl-4-hydroxyphenyl)-5-(4-hydroxyphenyl)-4-methyl-2-thiophenecarbaldehyde] | 228 to 230 °C | 0.071 µM |  | 0.515 µM |
| Cc1cc(O)ccc1-c1c(C=O)sc(-c2ccc(O)c(F)c2)c1C [Example 9, 5-(3-Fluoro-4-hydroxyphenyl)-3-(4-hydroxy-2-methylphenyl)-4-methylthiophene-2-carbaldehyde] |  | 0.012 µM |  | 0.085 µM |
| CON=Cc1sc(-c2ccc(O)cc2C)c(C)c1-c1ccc(O)c(F)c1 [Example 23, 3-(3-Fluoro-4-hydroxyphenyl)-5-(4-hydroxy-2-methylphenyl)-4-methylthiophene-2-carbaldehyde O-methyloxime] | 172 to 177 °C | 0.057 µM |  | 0.073 µM |
| Cc1c(-c2cccc(O)c2)sc(C=NO)c1-c1ccc(O)cc1 (mixture of isomers) [Example 21, 3-(4-Hydroxyphenyl)-5-(3-hydroxyphenyl)-4-methylthiophene-2-carbaldehyde oxime] | 240 to 241 °C | 0.123 µM |  | 0.196 µM |
| Cc1ccc(O)cc1-c1c(C=O)sc(-c2ccc(O)cc2)c1C [Example 4, 3-(5-Hydroxy-2-methylphenyl)-5-(4-hydroxyphenyl)-4-methyl-2-thiophenecarbaldehyde] |  | 0.174 µM |  | 0.464 µM |

— US6835745B2, “Phenyl substituted thiophenes as estrogenic agents” (Wyeth, priority 2002, dated 2004)
